Experimental data published in patent publication US20240342292A1, “Compounds for the Degradation of EGFR Kinase” (BeiGene Switzerland GmbH, priority 2021, published 2024).

Experiments:
L858R/T790M/C797S EGFR = molecular target: T1, L858R/T790M/C797S EGFR (Homo sapiens, UniProt P00533, C797S/L858R/T790M); assay: EGFR degradation HTRF assay in H1975-clone #25 (LTC) cells; assay type: cell-based; conditions: 16h treatment; for DC50: H1975 # 25-LTC (L858R/T790M/C797S), HTRF; for Dmax: NCI-H1975, H1975 # 25-LTC (L858R/T790M/C797S), maximum percentage of degradation
T1 construct: expressed in transfected cells; host or cells: H1975 clone #25 (lentiviral over-expression, endogenous EGFR knocked out by sgRNA)
T1 sequence (P00533 25-1210 T790M/C797S/L858R): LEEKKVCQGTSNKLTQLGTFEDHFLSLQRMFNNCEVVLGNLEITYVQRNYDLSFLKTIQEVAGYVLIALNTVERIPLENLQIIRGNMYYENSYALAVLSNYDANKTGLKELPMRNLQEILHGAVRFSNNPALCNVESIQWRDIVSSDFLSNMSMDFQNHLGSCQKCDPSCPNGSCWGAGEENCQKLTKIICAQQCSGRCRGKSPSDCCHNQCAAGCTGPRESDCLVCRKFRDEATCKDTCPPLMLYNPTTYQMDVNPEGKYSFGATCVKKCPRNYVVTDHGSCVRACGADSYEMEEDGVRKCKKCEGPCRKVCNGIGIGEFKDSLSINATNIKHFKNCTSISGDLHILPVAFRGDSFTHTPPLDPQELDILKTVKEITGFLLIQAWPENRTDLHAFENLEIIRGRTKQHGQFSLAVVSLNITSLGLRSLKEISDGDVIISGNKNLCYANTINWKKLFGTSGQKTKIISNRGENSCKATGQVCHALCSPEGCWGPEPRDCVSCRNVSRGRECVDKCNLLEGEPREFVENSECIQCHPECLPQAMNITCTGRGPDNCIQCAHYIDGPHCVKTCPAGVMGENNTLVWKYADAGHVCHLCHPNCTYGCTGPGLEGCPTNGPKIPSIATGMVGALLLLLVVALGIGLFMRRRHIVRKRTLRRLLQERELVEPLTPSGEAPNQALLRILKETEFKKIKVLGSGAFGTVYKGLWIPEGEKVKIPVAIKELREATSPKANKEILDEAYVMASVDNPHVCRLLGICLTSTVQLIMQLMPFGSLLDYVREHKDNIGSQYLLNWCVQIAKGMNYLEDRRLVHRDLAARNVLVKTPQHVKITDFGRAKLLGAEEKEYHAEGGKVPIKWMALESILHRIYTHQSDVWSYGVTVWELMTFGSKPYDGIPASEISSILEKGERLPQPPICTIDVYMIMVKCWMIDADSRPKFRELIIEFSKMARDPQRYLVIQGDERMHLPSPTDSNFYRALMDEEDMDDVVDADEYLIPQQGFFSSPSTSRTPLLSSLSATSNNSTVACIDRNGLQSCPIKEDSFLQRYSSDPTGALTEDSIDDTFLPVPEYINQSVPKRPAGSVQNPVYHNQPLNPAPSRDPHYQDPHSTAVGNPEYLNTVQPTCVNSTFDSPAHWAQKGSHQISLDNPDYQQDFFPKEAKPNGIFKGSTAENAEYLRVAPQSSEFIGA
Outline: (§1)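 H1975 clones stably overexpressing mutant EGFR by lentivirus, with endogenous EGFR knocked out by sgRNA and homozygosity confirmed by sequencing, were treated 16 h at 37 °C with compounds in 0.2% DMSO medium, 8 doses from 10 uM in 5-fold dilution. Lysates were read by HTRF (665/620 nm); DC50 came from a four-parameter fit.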

Del19/T790M/C797S EGFR = assay: EGFR degradation HTRF assay in H1975-clone #28 (DTC) cells; assay type: cell-based; conditions: H1975 # 28 DTC (Del19/T790M/C797S), 16h treatment; for DC50: HTRF; for Dmax (%): maximum percentage of degradation
Outline: as §1

Row | Structure (SMILES) | DC50 (L858R/T790M/C797S EGFR) | Dmax (L858R/T790M/C797S EGFR) | DC50 (Del19/T790M/C797S EGFR) | Dmax (%) (Del19/T790M/C797S EGFR)
1 | Cc1cc2cc(n1)-c1cnn(C)c1OCCC[C@@H](C)CN1/C(=N/C2=O)Nc2ccc(N3CCN(C4CCN(c5cc(F)c([C@H]6CCC(=O)NC6=O)c(F)c5)CC4)C(=O)C3)cc21 [Example 425, (R)-3-(2,6-difluoro-4-(4-(2-oxo-4-((R,E)-1^1,2^6,7-trimethyl-3-oxo-5^2,5^3-dihydro-1^1H,5^1H-11-oxa-4-aza-5(2,1)-benzo[d]imidazola-2(2,4)-pyridina-1(4,5)-pyrazolacycloundecaphane-5^6-yl)piperazin-1-yl)piperidin-1-yl)phenyl)piperidine-2,6-dione] | 0.73 nM | 92.7% | 0.957 nM | 83.85%
2 | COC[C@@H]1CN(C2CCN(c3cc(F)c([C@H]4CCC(=O)NC4=O)c(F)c3)CC2)CCN1c1ccc2c(c1)N1C[C@H](C)CCCOc3c(cnn3C)-c3cc(cc(C)n3)C(=O)/N=C/1N2 [Example 386, (R)-3-(2,6-difluoro-4-(4-((S)-3-(methoxymethyl)-4-((R,E)-1^1,2^6,7-trimethyl-3-oxo-5^2,5^3-dihydro-1^1H,5^1H-11-oxa-4-aza-5(2,1)-benzo[d]imidazola-2(2,4)-pyridina-1(4,5)-pyrazolacycloundecaphane-5-yl)piperazin-1-yl)piperidin-1-yl)phenyl)piperidine-2,6-dione] | 2.7 nM | 86.6% | 2.01 nM | 72.30%
3 | Cc1cc2cc(n1)-c1cnn(C)c1OCCC[C@@H](C)CN1/C(=N/C2=O)Nc2ccc(CN3CCC4(CC3)CN(C(=O)[C@@H]3CCN(c5cc(F)c([C@H]6CCC(=O)NC6=O)c(F)c5)C3)C4)cc21 [Example 20, (R)-3-(2,6-difluoro-4-((R)-3-(7-(((R,E)-1^1,2^6,7-trimethyl-3-oxo-5^2,5^3-dihydro-1^1H,5^1H-li-oxa-4-aza-5(2,1)-benzo[d]imidazola-2(2,4)-pyridina-1(4,5)-pyrazolacycloundecaphane-5^6-yl)methyl)-2,7-diazaspiro[3.5]nonane-2-carbonyl)pyrrolidin-1-yl)phenyl)piperidine-2,6-dione] | 0.9 nM | 89% | 0.7 nM | 79.0%
4 | CO[C@H]1CN(CCc2cc(F)c([C@H]3CCC(=O)NC3=O)c(F)c2)CC[C@H]1NC(=O)c1ccc2c(c1)N1C[C@H](C)CCCOc3c(cnn3C)-c3cc(cc(C)n3)C(=O)/N=C/1N2 [Example 244, (R,E)-N-((3S,4R)-1-(4-((R)-2,6-dioxopiperidin-3-yl)-3,5-difluorophenethyl)-3-methoxypiperidin-4-yl)-1^1,2^6,7-trimethyl-3-oxo-5^2,5^3-dihydro-1^1H,5^1H-li-oxa-4-aza-5(2,1)-benzo[d]imidazola-2(2,4)-pyridina-1(4,5)-pyrazolacycloundecaphane-5^6-carboxamide] | 0.167 nM | 95.3% | 0.548 nM | 78.89%
5 | Cc1cc2cc(n1)-c1cnn(C)c1OCCC[C@@H](C)CN1/C(=N/C2=O)Nc2ccc(N3CC(C(=O)N4CCN(c5cc(F)c([C@H]6CCC(=O)NC6=O)c(F)c5)CC4)C3)cc21 [Example 354, (R)-3-(2,6-difluoro-4-(4-(1-((R,E)-1^1,2^6,7-trimethyl-3-oxo-5^2,5^3-dihydro-1^1H,5^1H-11-oxa-4-aza-5(2,1)-benzo[d]imidazola-2(2,4)-pyridina-1(4,5)-pyrazolacycloundecaphane-5^6-yl)azetidine-3-carbonyl)piperazin-1-yl)phenyl)piperidine-2,6-dione] | 0.59 nM | 89.3% | 0.501 nM | 72.74%
6 | Cc1cc2cc(n1)-c1cnn(C)c1OCCC[C@@H](C)CN1/C(=N/C2=O)Nc2ccc(C(=O)N3CC[C@H](NCCc4cc(F)c([C@H]5CCC(=O)NC5=O)c(F)c4)C3)cc21 [Example 298, (R)-3-(2,6-difluoro-4-(2-(((S)-1-((R,E)-1^1,2^6,7-trimethyl-3-oxo-5^2,5^3-dihydro-1^1H,5^1H-11-oxa-4-aza-5(2,1)-benzo[d]imidazola-2(2,4)-pyridina-1(4,5)-pyrazolacycloundecaphane-5^6-carbonyl)pyrrolidin-3-yl)amino)ethyl)phenyl)piperidine-2,6-dione] | 1.14 nM | 90.1% | 1.2 nM | 66.58%
7 | Cc1cc2cc(n1)-c1c(C(F)F)nn(C)c1OCCC[C@@H](C)CN1/C(=N/C2=O)Nc2ccc(CN3CCN(C(=O)C4CN(c5cc(F)c([C@H]6CCC(=O)NC6=O)c(F)c5)C4)CC3)cc21 [Example 64, (R)-3-(4-(3-(4-(((R,E)-13-(difluoromethyl)-1^1,2^6,7-trimethyl-3-oxo-5^2,5^3-dihydro-1^1H,5^1H-11-oxa-4-aza-5(2,1)-benzo[d]imidazola-2(2,4)-pyridina-1(4,5)-pyrazolacycloundecaphane-5^6-yl)methyl)piperazine-1-carbonyl)azetidin-1-yl)-2,6-difluorophenyl)piperidine-2,6-dione] | 3.13 nM | 76.8% | 1.51 nM | 80.65%
8 | Cc1cc2cc(n1)-c1cnn(C)c1OCCC[C@@H](C)CN1/C(=N/C2=O)Nc2ccc(C(=O)N(C)[C@H]3CCN(CCc4cc(F)c([C@H]5CCC(=O)NC5=O)c(F)c4)[C@H](C)C3)cc21 [Example 259, (R,E)-N—((2R,4S)-1-(4-((R)-2,6-dioxopiperidin-3-yl)-3,5-difluorophenethyl)-2-methylpiperidin-4-yl)-N,1^1,2^6,7-tetramethyl-3-oxo-5^2,5^3-dihydro-1^1H,5^1H-11-oxa-4-aza-5(2,1)-benzo[d]imidazola-2(2,4)-pyridina-1(4,5)-pyrazolacycloundecaphane-5^6-carboxamide] | 0.841 nM | 89.2% | 0.725 nM | 83.21%
9 | Cc1cc2cc(n1)-c1cnn(C)c1OCCC[C@@H](C)CN1/C(=N/C2=O)Nc2ccc(C(=O)N(C)[C@H]3CCN(CCNc4cc(F)c([C@H]5CCC(=O)NC5=O)c(F)c4)C[C@H]3F)cc21 [Example 351, (R,E)-N—((3R,4S)-1-(2-((4-((R)-2,6-dioxopiperidin-3-yl)-3,5-difluorophenyl)amino)ethyl)-3-fluoropiperidin-4-yl)-N,1^1,2^6,7-tetramethyl-3-oxo-5^2,5^3-dihydro-1^1H,5^1H-11-oxa-4-aza-5(2,1)-benzo[d]imidazola-2(2,4)-pyridina-1(4,5)-pyrazolacycloundecaphane-5^6-carboxamide] | 0.614 nM | 91.7% | 0.561 nM | 83.91%
10 | Cc1cc2cc(n1)-c1cnn(C)c1OCCC[C@@H](C)CN1/C(=N/C2=O)Nc2ccc(C3CCN(CC4CCN(c5cc(F)c([C@H]6CCC(=O)NC6=O)c(F)c5)CC4)CC3)cc21 [Example 323, (R)-3-(2,6-difluoro-4-(4-((4-((R,E)-1^1,2^6,7-trimethyl-3-oxo-5^2,5^3-dihydro-1^1H,5^1H-11-oxa-4-aza-5(2,1)-benzo[d]imidazola-2(2,4)-pyridina-1(4,5)-pyrazolacycloundecaphane-5^6-yl)piperidin-1-yl)methyl)piperidin-1-yl)phenyl)piperidine-2,6-dione] | 1.03 nM | 63.9% | 1.03 nM | 49.97%
11 | Cc1cc2cc(n1)-c1cnn(C)c1OCCC[C@@H](C)CN1/C(=N/C2=O)Nc2ccc(CC3CCN(C(=O)C4CN(c5cc(F)c([C@H]6CCC(=O)NC6=O)c(F)c5)C4)CC3)cc21 [Example 159, (R)-3-(2,6-difluoro-4-(3-(4-(((R,E)-1^1,2^6,7-trimethyl-3-oxo-5^2,5^3-dihydro-1^1H,5^1H-11-oxa-4-aza-5(2,1)-benzo[d]imidazola-2(2,4)-pyridina-1(4,5)-pyrazolacycloundecaphane-5^6-yl)methyl)piperidine-1-carbonyl)azetidin-1-yl)phenyl)piperidine-2,6-dione] | 1.48 nM | 79.9% | 1.77 nM | 79.77%
12 | Cc1cc2cc(n1)-c1cnn(C)c1OCCC[C@@H](C)CN1/C(=N/C2=O)Nc2ccc(CN3CCN(C(=O)[C@@H]4CCN(c5cc(F)c(C6CCC(=O)NC6=O)c(F)c5)C4)[C@H](C)C3)cc21 (stereo partly drawn) [Example 106, (R)-3-(2,6-difluoro-4-((R)-3-((R)-2-methyl-4-(((R,E)-1^1,2^6m7-trimethyl-3-oxo-5^2,5^3-dihydro-1^1H,5^1H -11-oxa-4-aza-5(2,1)-benzo[d]imidazola-2(2,4)-pyridina-1(4,5)-pyrazolacycloundecaphane-5^6-yl)methyl)piperazine-1-carbonyl)pyrrolidin-1-yl)phenyl)piperidine-2,6-dione] | 1.7 nM | 79.1% | 1.2 nM | 74.4%
13 | Cc1cc2cc(n1)-c1cnn(C)c1OCC[C@H]1C[C@@H]1CN1/C(=N/C2=O)Nc2ccc(N3CCN(C4CCN(c5ccc(C6CCC(=O)NC6=O)nc5C)CC4)CC3)cc21 (stereo partly shown) [Example 465, 3-(5-(4-(4-((7^1S,7^2R,E)-1^1,2^6-dimethyl-3-oxo-5^2,5^3-dihydro-1^1H,5^1H-10-oxa-4-aza-5(2,1)-benzo[d]imidazola-2(2,4)-pyridina-1(4,5)-pyrazola-7(1,2)-cyclopropanacyclodecaphane-5^6-yl)piperazin-1-yl)piperidin-1-yl)-6-methylpyridin-2-yl)piperidine-2,6-dione] | 0.472 nM | 94.8% | 0.319 nM | 90.39%
